In ChEMBL document CHEMBL1255547, “Preparation and characterization of novel 4-bromo-3,4-dimethyl-1-phenyl-2-phospholene 1-oxide and the analogous phosphorus heterocycles or phospha sugars” (Bioorg Med Chem Lett, 2010):
pIC50: −log10 of the molar value.

The compounds below were run on U-937 (assay: Cytotoxicity against human U937 cells after 48 hrs by MTT assat). Details: U-937, 48 h.
Assay type: functional, cell-based

SMILES | pIC50
CC1=CP(=O)(c2ccccc2)CC1Br (configuration not stated) | 4.06
CC1=CP(=O)(c2ccccc2)CC1C (configuration not stated) | 3.46
O=P1(c2ccccc2)C=CCC1 (configuration not stated) | < 3.00
CCC1=CP(=O)(c2ccccc2)CC1Br (configuration not stated) | < 3.00
CC1=CP(=O)(c2ccccc2)CC1 (configuration not stated) | 3.05
O=P1(c2ccccc2)C=CC(Br)C1 (configuration not stated) | < 3.00
CC1=CP(=O)(c2ccccc2)CC1(C)Br (configuration not stated) | 5.25
